Source: article PMC7139479, “Insights into Interactions of Flavanones with Target Human Respiratory Syncytial Virus M2-1 Protein from STD-NMR, Fluorescence Spectroscopy, and Computational Simulations” (International Journal of Molecular Sciences, 2020)

Columns and labels:
[1] = target: T1, hRSV M2-1 protein (Human respiratory syncytial virus A, UniProt P04545); experiment: Fluorescence quenching of M2-1 by flavanones (double-log plot, thermodynamic analysis); assay type: binding, human Respiratory Syncytial Virus (hRSV A2 strain); details: for Enthalpy change ΔH: Van't Hoff equation from Kb at 288 and 298 K
T1 construct: allowing the expression of the full-length M2-1 with N-terminal fused to a His6-tag; made in house; host or cells: Escherichia coli BL21 RIL
T1 sequence (P04545 whole entry, the tested form may be a part): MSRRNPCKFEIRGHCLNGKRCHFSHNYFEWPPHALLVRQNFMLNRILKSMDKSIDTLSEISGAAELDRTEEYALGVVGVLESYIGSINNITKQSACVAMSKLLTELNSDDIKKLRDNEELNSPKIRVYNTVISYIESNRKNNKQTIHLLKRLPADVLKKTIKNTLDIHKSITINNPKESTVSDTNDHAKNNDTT
Protocol: The fluorescence measurements were performed on a steady-state ISS-PC1 spectrofluorimeter with temperature control (thermal bath Neslab RTE-221) and equipped with quartz cuvette of 10 mm optical path length. The excitation and emission bandwidths were set at 4 and 8 nm, respectively. The excitation wavelength was of 290 nm and the emission spectra were reported between 295 and 500 nm with 10 accumulations for each collected point. The emission spectrum was corrected for the background fluorescence from the buffer solution and for inner filter effect promoted by the flavonoids. The protein-ligand interaction measures were performed by collecting the fluorescence spectra of the protein in the absence of ligand (2 mL at 6 μM) and checking for quenching of intensities after addition of increasing concentrations of flavonoids, at 288 and 298 K (15 and 25 °C). The flavonoids’ concentrations varied from 0 to 26 μM in the final solution, with the emission of the hRSV M2-1 protein analyzed at 320 nm.
For the data analysis, it was hypothesized that the binding sites of the flavonoids on the M2-1 protein are equal and independent. Thus, the binding constant (Kb) and the number of binding sites (n) can be calculated using the following equation [46]:(2) log(F0−F/F)=n·logKb+n·log1/([LT]−(F0−F/F0)[PT]) where F0 and F are the fluorescence intensity of the M2-1 protein in the absence and in the presence of the flavonoids, respectively. [PT] and [LT] is the total concentration of M2-1 protein and ligand (flavonoids), respectively. The values of Kb and n for the M2-1/flavonoids complex are obtained from the ordinate and slope of the linear fitting from the double-log plot log((F0 − F)/F) & log(1/([LT] − ((F0 − F)/F0)[PT])), respectively.
In order to investigate the driving forces responsible for the binding of the flavonoids hesperetin and hesperidin to the M2-1 protein, the enthalpy change (ΔH) of this interaction was calculated from the Van’t Hoff equation:(3) lnKb2/Kb1=−ΔH/R(1/T2−1/T1) where Kb1 and Kb2 are binding constants at the absolute temperatures T1 and T2, which were 288 and 298 K (15 and 25 °C), respectively. R corresponds to the universal gas constant ([…]). The Gibbs free energy (ΔG) and entropy changes (ΔS) for the M2-1/flavonoids complex were calculated from the following equations:(4) ΔG=−R·T·lnKb (5) ΔS=ΔH−ΔG/T

[2] = target: T1, hRSV M2-1 protein; experiment: STD-NMR of M2-1/flavanone binding; design: species or system human Respiratory Syncytial Virus (hRSV A2 strain); details: 298 K, 50 µM protein, 250 µM flavonoid
Protocol: STD-NMR experiments were performed on a Bruker Avance III 600.13 MHz equipped with a triple resonance 5 mm cryoprobe, having the pulse field gradient along the Z axis. All data were analyzed with Bruker Topspin v3.5. A total concentration of 50 μM hRSV M2-1 protein in 50 mM K2HPO4/KH2PO4 buffer (pH 7.4) containing 150 mM NaCl and 1 mM DTT at 80/20% H2O/D2O was used for all measurements. The concentration of the flavonoids used in binding experiments was of 250 μM. The on- and off-resonance frequencies were set at −0.5 and 40 ppm, providing the best profile of protein saturation and STD effect. […] A total of 16 scans with 32 loop counters were collected with 4 dummy scans. For the suppression of the protein signals, it was applied a spinlock filter of 30 ms with 0.776 W. All measurements were performed at 298 K (25 °C) and it was used a flavonoid stock solution solubilized in deuterated DMSO-d6.
The STD effect ( ISTD ) on a given proton of the ligand was calculated according to the following equation [43, 44]:(1) ISTD=Ioff-resonance−Ion-resonance/I off-resonance where Ion-resonance and Ioff-resonance are the intensities of the ligand signals in the on- and off-resonance spectrum, respectively. The proton of the flavonoid with the highest STD effect (magnetization transfer maximum) was equal to 100% and the others protons were normalized according to this signal. The identification of ^1H NMR signals of the flavonoids at buffer solution [50 mM K2HPO4/KH2PO4 buffer (pH 7.4) at 80/20% H2O/D2O containing 150 mM NaCl and 1 mM DTT] was assisted by the resonance assignment from Chemical Book database (www.chamicalbook.com) under access code 520-33-2.

[3] = system: RSV; design: method as in earlier work; details: against RSV; ref 28 (Kaul et al., 1985); cited from earlier work

| SMILES | Gibbs free energy change ΔG ([1]; 288 K) | Number of binding sites n ([1]; 288 K) | T·ΔS ([1]; 288 K) | Gibbs free energy change ΔG ([1]; 298 K) | Number of binding sites n ([1]; 298 K) | T·ΔS ([1]; 298 K) | Enthalpy change ΔH [1] | STD effect, 1H protons on B-ring (normalized to highest signal) [2] | STD effect, hydrogens on A-ring (normalized to highest signal) [2] | Anti-replicative activity [3] |
| --- | --- | --- | --- | --- | --- | --- | --- | --- | --- | --- |
| COc1ccc([C@@H]2CC(=O)c3c(O)cc(O)cc3O2)cc1O [HST, Hesperetin] | -6.5 kcal/mol | 1.05 | -22.5 kcal/mol | -5.7 kcal/mol | 1.04 | -23.3 kcal/mol | -29.0 kcal/mol | 72% | 100% | 88% |
| COc1ccc([C@@H]2CC(=O)c3c(O)cc(O[C@@H]4O[C@H](CO[C@@H]5O[C@@H](C)[C@H](O)[C@@H](O)[C@H]5O)[C@@H](O)[C@H](O)[C@H]4O)cc3O2)cc1O [HSD, Hesperidin] | -5.2 kcal/mol | 0.89 | 3.5 kcal/mol | -5.4 kcal/mol | 0.93 | 3.7 kcal/mol | -1.7 kcal/mol | 96% | – | – |
